Twelve compounds from US9708259B2 (Hoffmann-La Roche Inc., priority 2013, dated 2017) can be followed below.

Changes are numbered by the printed parent chain.

The target in one assay is T1, ratM1 (Rattus norvegicus, UniProt P08482).
T1 construct: expressed in transfected cells; host or cells: CHO cells (stated generally for the assay, not specifically for rat M1)
T1 sequence (P08482 1-460): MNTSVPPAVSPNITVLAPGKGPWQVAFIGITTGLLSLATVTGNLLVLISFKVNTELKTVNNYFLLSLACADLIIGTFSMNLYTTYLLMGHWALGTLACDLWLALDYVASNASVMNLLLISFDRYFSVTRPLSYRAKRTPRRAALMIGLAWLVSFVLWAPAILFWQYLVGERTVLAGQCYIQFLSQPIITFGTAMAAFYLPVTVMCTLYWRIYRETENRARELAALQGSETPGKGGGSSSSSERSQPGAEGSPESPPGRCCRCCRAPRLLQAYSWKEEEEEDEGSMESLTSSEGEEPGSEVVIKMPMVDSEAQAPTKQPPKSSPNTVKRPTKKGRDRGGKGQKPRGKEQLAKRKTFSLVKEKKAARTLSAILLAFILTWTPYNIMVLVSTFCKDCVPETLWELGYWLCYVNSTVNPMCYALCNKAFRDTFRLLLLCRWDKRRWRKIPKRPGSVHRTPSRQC
Put plainly: M1 PAM assay (FLIPR intracellular calcium), rat M1. The class given is cell-based. Conditions: rat M1, FLIPR Ca2+; second value of the cell; read-out: ratM1 EC50. A general note: Calcium assays in cells follow changes in intracellular calcium, usually with a dye or a luminescent sensor.

For another assay, the target named is T2, human M1 (Homo sapiens, UniProt P11229).
T2 construct: expressed in transfected cells; host or cells: CHO cells
T2 sequence (P11229 1-460): T1 sequence (P08482 1-460) with V5A, S254T, S309P, K320R, G337A, V413I
The experiment in a line: M1 PAM assay (FLIPR intracellular calcium), human M1. In kind it is cell-based. Conditions: CHO human M1 cells, FLIPR Ca2+, with EC20 of acetylcholine; first value of the cell; read-out: hM1 EC50. Put shortly: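 CHO cells expressing M1, Fluo-4AM-loaded, in HEPES/probenecid HBSS pH 7.4, 1% DMSO final. Compounds pre-incubated 2 min for agonist activity versus 30 nM acetylcholine control. For PAM activity, acetylcholine EC20 added after the 2 min pre-incubation, then 2 min more before FLIPR intracellular Ca2+ read.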

In general, EC50 refers to the concentration giving half of the maximal effect. As to `COc1ccc(F)c2c(C(=O)N[C@H]3CCOC[C@@H]3O)cn(Cc3ccc(-c4cnn(C)c4)cc3)c12` [Example 150, 4-fluoro-N-((3R,4S)-3-hydroxytetrahydro-2H-pyran-4-yl)-7-methoxy-1-(4-(1-methyl-1H-pyrazol-4-yl)benzyl)-1H-indole-3-carboxamide], the concentration for a half-maximal effect (EC50) was found to be 34 nM at ratM1 and 50 nM at human M1.

With `Cn1cc(-c2ccc(Cn3cc(C(=O)N[C@H]4CCCC[C@@H]4O)c4c(F)c(F)ccc43)cn2)cn1` [Example 58, 4,5-difluoro-N-((1S,2S)-2-hydroxycyclohexyl)-1-((6-(1-methyl-1H-pyrazol-4-yl)pyridine-3-yl)methyl)-1H-indole-3-carboxamide], the concentration for a half-maximal effect (EC50) was determined as 10000 nM on ratM1 and 174 nM at human M1.

For the compound `CNC(=O)c1ccc(Cn2cc(C(=O)NC3CCCC3)c3c(F)cccc32)cc1` [Example 113, N-cyclopentyl-4-fluoro-1-[[4-(methylcarbamoyl)phenyl]methyl]indole-3-carboxamide], the half-maximal effective concentration (EC50) on ratM1 stood at 77 nM; on human M1, 34 nM.

As to `CNC(=O)c1ccc(Cn2cc(C(=O)NC)c3c(F)cccc32)cc1` [Example 110, 4-fluoro-N-methyl-1-[[4-(methylcarbamoyl)phenyl]methyl]indole-3-carboxamide], the concentration for a half-maximal effect (EC50) on ratM1 turned out to be 482 nM; on human M1 it was 141 nM.

Consider `CNC(=O)c1ccc(Cn2cc(C(=O)NC3CCCCC3F)c3c(F)cccc32)cc1F` (stereo not drawn) [Example 129, 4-fluoro-1-(3-fluoro-4-(methylcarbamoyl)benzyl)-N-(2-fluorocyclohexyl)-1H-indole-3-carboxamide], for which the figures for the EC50 on ratM1 and at human M1 were 66 nM and 27 nM, respectively.

Consider `O=C(NC1CCOCC1)c1cn(Cc2ccc(-c3nc[nH]n3)cc2)c2cccc(F)c12` [Example 157, 1-(4-(1H-1,2,4-triazol-3-yl)benzyl)-4-fluoro-N-(tetrahydro-2H-pyran-4-yl)-1H-indole-3-carboxamide], for which the results for the EC50 on ratM1 and on human M1 were 117 nM and 95 nM, respectively.

Consider `CNC(=O)c1ccc(Cn2cc(C(=O)N[C@H]3CCCC[C@@H]3O)c3c(F)cccc32)cc1F` [Example 88, 4-fluoro-1-(3-fluoro-4-(methylcarbamoyl)benzyl)-N-((1S,2S)-2-hydroxycyclohexyl)-1H-indole-3-carboxamide], for which the EC50 turned out to be 15.8 nM at ratM1 and 14.3 nM at human M1.

Consider `CNC(=O)c1ccc(Cn2cc(C(=O)NC3CCOCC3)c3c(F)cccc32)cc1F` [Example 163, 4-Fluoro-1-(3-fluoro-4-(methylcarbamoyl)benzyl)-N-(tetrahydro-2H-pyran-4-yl)-1H-indole-3-carboxamide], for which the results for the EC50 on ratM1 and at human M1 were 82 nM and 59 nM, respectively.

With `COc1ccc(F)c2c(C(=O)N[C@H]3CCCC[C@@H]3O)cn(Cc3ccc(-c4cnn(C)c4)cc3)c12` [Example 148, 4-fluoro-N-((1S,2S)-2-hydroxycyclohexyl)-7-methoxy-1-(4-(1-methyl-1H-pyrazol-4-yl)benzyl)-1H-indole-3-carboxamide], the EC50 on ratM1 stood at 139 nM; on human M1, 84 nM.

As to `Cn1cc(-c2ccc(Cn3cc(C(=O)N[C@H]4COCC[C@@H]4O)c4c(F)cccc43)c(F)c2)cn1` [Example 22, 4-fluoro-1-(2-fluoro-4-(1-methyl-1H-pyrazol-4-yl)benzyl)-N-((3S,4S)-4-hydroxytetrahydro-2H-pyran-3-yl)-1H-indole-3-carboxamide], the results for the EC50 on ratM1 and at human M1 were 60.5 nM and 17.8 nM, respectively.

Turning to `CNC(=O)c1ccc(Cn2cc(C(=O)NC3CCOCC3C)c3c(F)cccc32)cc1` (stereo not drawn) [Example 126, 4-fluoro-1-[[4-(methylcarbamoyl)phenyl]methyl]-N-(3-methyloxan-4-yl)indole-3-carboxamide], the EC50 at ratM1 was determined as 51 nM; on human M1, 19 nM.

Take `CNC(=O)c1ccc(Cn2cc(C(=O)NC3(C)CCOCC3)c3c(F)cccc32)cc1` [Example 123, 4-fluoro-1-[[4-(methylcarbamoyl)phenyl]methyl]-N-(4-methyloxan-4-yl)indole-3-carboxamide]: the concentration for a half-maximal effect (EC50) on ratM1 was found to be 680 nM; on human M1, 364 nM.
